From patent US20240024317A1, “CANCER TREATMENT USING BOSENTAN IN COMBINATION WITH A CHECKPOINT INHIBITOR” (Materia Therapeutics Inc., priority 2020, published 2024)

Tested on: 4T1 tumors
Assay: Dynamic contrast-enhanced ultrasound (DCEUS) perfusion measures
Format: in vivo, mice
Conditions: bosentan treated versus control or immunotherapy cocktail only
Description: Dynamic contrast-enhanced ultrasound (DCEUS). Tumor associated vascular perfusion was assessed with DCEUS after bolus injection of contrast agents (8 μl of sulphur hexafluoride microbubbles encapsulated by a phospholipid shell with a mean diameter of 2.5 μm, retro-orbital administration). Ultrasound scanning of tumor was performed using the L12-5 transducer. Contrast first harmonic signals were received at 8 MHz with a mechanical index of 0.06. For all subjects the depth was set to 3 cm allowing measurements of the full depth of the tumor. Gain was set at 90% for each recording. Focus was optimized and standardized for each subject when finding the tumor area using B-mode imaging. Real-time power modulation imaging was started after flashing imaging with a high mechanical index to destroy the microbubbles in tumor tissue to peak contrast intensity to allow visualization of bubble replenishment. Image analysis was performed offline using an ultrasound quantification and analysis software (QLAB, Phillips Medical Systems). From the produced time intensity curves, we used as measures of perfusion the Mean transit time and the time required to reach the peak intensity (Rise time). […]

COc1ccccc1Oc1c(NS(=O)(=O)c2ccc(C(C)(C)C)cc2)nc(-c2ncccn2)nc1OCCO [bosentan, 4-tert-butyl-N-[6-(2-hydroxy-ethoxy)-5-(2-methoxy-phenoxy)-2-(pyrimidin-2-yl)pyrimidin-4-yl] benzenesulfonamide]
mean transit time (DCEUS): higher
rise time (DCEUS): higher
